Source: patent US20190302114A1, “METHOD FOR DETECTING THE PRESENCE OF MYC[…] IN SAMPLE USING I[…] PHO[…]” (KEI INTERNATIONAL LIMITED, priority 2016, published 2019)

Tests used:
Format in all cases: binding
[1] = tested on: antibodies against mycobacterial material in human serum; assay: ELISA with antigen immobilised on ELISA plates, rabbit anti-human IgM HRP as secondary antibody; details: for tuberculosis specific binding of antibodies to the immobilised antigen: overall conclusion from TB patient versus healthy samples; for background ELISA signal (absorbance at 450 nm) in healthy persons: serum of healthy persons, 1:20, 'lower' is relative to immobilised mycolic acid
[2] = tested on: antibodies against mycobacterial material in human serum; assay: ELISA with antigen immobilised on ELISA plates, rabbit anti-human IgG HRP as secondary antibody
[3] = tested on: antibodies against mycobacterial material in human serum; assay: ELISA with diacyl glycolipid antigen of formula (XIII) immobilised via the terminal thio group
[4] = serum of smear positive TB patients 1-9 (+)

Compound: 2-palmitoyl-3-hydroxyphthioceranoyl-2′-sulfate-α-α′-D-trehalose [Ac2SGL]
- tuberculosis specific binding of antibodies to the immobilised antigen [1]: very high tuberculosis specific binding
- background ELISA signal (absorbance at 450 nm) in healthy persons [1]: markedly lower
- absorbance signal of samples from smear negative patients versus healthy persons ([1]; serum of smear negative TB patients 11-18 (−)): significantly higher than the signal of the healthy persons
- absorbance signal of samples from smear positive patients versus healthy persons [1, 4]: higher than the signal of the healthy persons

Compound: CCCCCCCC(C)CCCC(C)CCCC(C)CCCC(C)CCCC(C)CCCOP(=O)(O)O[C@@H]1O[C@H](CO)[C@@H](O)[C@H](O)[C@@H]1O (stereo partly drawn) [β-mannosyl phosphomycoketide]
- tuberculosis specific binding of antibodies to the immobilised antigen ([2]; overall conclusion, in particular smear positive samples): very high tuberculosis specific binding
- background ELISA signal (absorbance at 450 nm) in healthy persons ([2]; serum of healthy persons, 1:20, 'lower' is relative to immobilised mycolic acid): markedly lower
- absorbance signal of samples from smear positive patients versus healthy persons [2, 4]: significantly higher than the signal obtained in the healthy persons

Compound: C/C(=C\C[n+]1cnc2c(ncn2[C@@H]2O[C@H](CO)C(O)[C@@H]2O)c1N)CC[C@@]1(C)[C@@H]2CCCC(C)(C)C2=CC[C@@H]1C (stereo partly shown) [1-tuberculosinyladenosine]
- tuberculosis specific binding of antibodies to the immobilised antigen [1]: very high tuberculosis specific binding
- background ELISA signal (absorbance at 450 nm) in healthy persons [1]: markedly lower

Compound: CCCCCCCCCCCCCCCCCC[C@H](C)C[C@H](C)[C@@H](O)[C@H](C)C(=O)O[C@@H]1C(OC(=O)CCCCCCCCCCCCCCCS)[C@@H](O[C@H]2OC(CO)[C@@H](O)C(O)[C@H]2O)OC(CO)[C@H]1O (stereo partly shown) [formula (XIII)]
- background ELISA signal in healthy persons ([3]; healthy persons (n=4)): markedly lower
- tuberculosis specific binding of antibodies to the immobilised antigen ([3]; overall conclusion, most significant in smear negative samples): very high tuberculosis specific binding
- absorbance signal of samples from smear negative patients versus healthy persons ([3]; smear negative patients (n=32), very low standard deviation): significantly higher than the signal of the healthy persons
- absorbance signal of samples from smear positive patients versus healthy persons ([3]; smear positive patients (n=9), rather high standard deviation): higher than the signal of the healthy persons
